Laboratory results published in US20070015735A1, “Water-dispersible carotenoids, including analogs and derivatives” (priority 2005, published 2007).

Type: physicochemical
Conditions: 2 h

- Aqueous dispersibility (concentration of the original supernatant): 2.85 mg/mL
Substance: β,ε-Carotenyl 3,3′-disuccinate sodium salt [compound 106]
